For experiment [1], the target named is T1, Cholecystokinin receptor type A (Cavia porcellus, UniProt Q63931).
T1 sequence (Q63931 whole entry): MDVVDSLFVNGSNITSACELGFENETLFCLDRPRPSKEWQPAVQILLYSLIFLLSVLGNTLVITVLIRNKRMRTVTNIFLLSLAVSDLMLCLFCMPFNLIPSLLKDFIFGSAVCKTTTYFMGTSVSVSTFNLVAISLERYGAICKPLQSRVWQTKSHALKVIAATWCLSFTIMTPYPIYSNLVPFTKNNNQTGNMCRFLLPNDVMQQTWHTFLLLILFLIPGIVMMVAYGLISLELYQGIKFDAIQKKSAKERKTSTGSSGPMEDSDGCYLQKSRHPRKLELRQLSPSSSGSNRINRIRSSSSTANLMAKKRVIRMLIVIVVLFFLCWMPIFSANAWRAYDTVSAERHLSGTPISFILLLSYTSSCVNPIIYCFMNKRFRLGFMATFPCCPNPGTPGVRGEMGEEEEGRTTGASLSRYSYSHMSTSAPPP
The experiment is described as follows: Tested for inhibition of [3H]-pCCK-8 specific binding to cholecystokinin type A receptor in guinea pig pancreatic membranes. The format is cell membranes.

The target of experiment [2] is T2, Cholecystokinin receptor type A (Rattus norvegicus, UniProt P30551).
T2 sequence (P30551 whole entry): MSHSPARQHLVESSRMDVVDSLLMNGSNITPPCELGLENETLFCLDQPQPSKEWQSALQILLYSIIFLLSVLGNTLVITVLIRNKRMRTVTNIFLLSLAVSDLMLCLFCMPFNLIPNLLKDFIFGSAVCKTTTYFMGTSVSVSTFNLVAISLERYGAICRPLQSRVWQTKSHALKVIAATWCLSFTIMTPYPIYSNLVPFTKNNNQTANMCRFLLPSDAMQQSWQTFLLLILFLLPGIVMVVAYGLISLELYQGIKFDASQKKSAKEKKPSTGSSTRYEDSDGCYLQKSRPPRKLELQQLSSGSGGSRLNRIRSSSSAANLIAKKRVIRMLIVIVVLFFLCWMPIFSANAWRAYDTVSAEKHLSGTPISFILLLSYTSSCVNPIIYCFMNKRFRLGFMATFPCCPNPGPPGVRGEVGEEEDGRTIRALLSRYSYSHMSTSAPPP
The experiment is described as follows: Tested for binding affinity towards cholecystokinin type A receptor in rat pancreas by displacement of [3H]pCCK-8 radioligand.

The target in experiment [3] is T3, Gastrin/cholecystokinin type B receptor (Rattus norvegicus, UniProt P30553).
T3 sequence (P30553 whole entry): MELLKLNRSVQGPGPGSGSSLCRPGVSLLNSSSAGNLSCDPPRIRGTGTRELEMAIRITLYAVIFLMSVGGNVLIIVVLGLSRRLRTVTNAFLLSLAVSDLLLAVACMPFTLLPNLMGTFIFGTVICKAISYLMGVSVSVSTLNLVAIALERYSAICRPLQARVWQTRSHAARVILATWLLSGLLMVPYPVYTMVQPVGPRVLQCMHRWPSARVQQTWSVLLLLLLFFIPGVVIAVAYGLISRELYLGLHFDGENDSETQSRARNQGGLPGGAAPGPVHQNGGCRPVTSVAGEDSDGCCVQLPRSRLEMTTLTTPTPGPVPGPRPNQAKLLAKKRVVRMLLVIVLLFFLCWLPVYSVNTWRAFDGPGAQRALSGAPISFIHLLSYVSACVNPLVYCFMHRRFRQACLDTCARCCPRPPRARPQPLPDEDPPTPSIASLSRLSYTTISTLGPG
The experiment can be described thus: Tested for binding affinity towards cholecystokinin type B receptor in rat […] by displacement of [3H]pCCK-8 radioligand.

Experiment [4] deals with T4, Gastrin/cholecystokinin type B receptor (Mus musculus, UniProt P56481).
T4 sequence (P56481 whole entry): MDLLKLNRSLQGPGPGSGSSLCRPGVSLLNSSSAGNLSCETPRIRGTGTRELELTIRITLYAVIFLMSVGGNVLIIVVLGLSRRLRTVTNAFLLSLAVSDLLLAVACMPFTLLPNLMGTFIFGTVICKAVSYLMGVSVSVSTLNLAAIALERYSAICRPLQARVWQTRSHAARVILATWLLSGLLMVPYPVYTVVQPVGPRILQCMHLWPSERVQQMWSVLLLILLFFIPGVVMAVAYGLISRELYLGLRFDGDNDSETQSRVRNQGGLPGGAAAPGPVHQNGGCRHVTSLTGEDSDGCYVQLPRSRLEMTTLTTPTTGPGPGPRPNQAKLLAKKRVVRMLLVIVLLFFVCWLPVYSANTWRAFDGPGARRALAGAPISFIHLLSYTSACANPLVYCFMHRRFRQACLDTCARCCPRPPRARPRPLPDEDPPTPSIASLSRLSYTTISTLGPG
The experiment can be described thus: Tested for binding affinity towards cholecystokinin type B receptor in mouse brain by displacement of [3H]pBC264 radioligand (icv). The experiment is classed as tissue-based.

The structures appear in SMILES notation. Some results are limits rather than exact numbers.

Regarding `CC(Cc1c[nH]c2ccccc12)(NC(=O)NC(c1ccccc1)(c1ccccc1)c1ccccc1)C(=O)NCCc1ccccc1` (stereo not drawn), in experiment [1], the affinity, expressed as Ki, was 1780 nM.

Molecule `CC(Cc1c[nH]c2ccccc12)(NC(=O)OC1[C@H]2C[C@@H]3C[C@@H](C[C@H]1C3)C2)C(=O)NCCc1ccccc1` (stereo partly drawn) had an inhibition constant (Ki) in experiment [1] of 1890 nM.

Molecule `CC(Cc1c[nH]c2ccccc12)(NC(=O)OC1[C@H]2C[C@@H]3C[C@@H](C[C@H]1C3)C2)C(=O)NCCc1ccc(Cl)c(Cl)c1` (stereo partly drawn) yielded a Ki in experiment [1] of 1540 nM.

As to `CC(Cc1c[nH]c2ccccc12)(NC(=O)OC1[C@H]2C[C@@H]3C[C@@H](C[C@H]1C3)C2)C(=O)N(CCc1ccccc1)CC(=O)O` (stereo partly drawn), the inhibition constant (Ki) in experiment [2] was 531 nM; in experiment [1], 1520 nM.

In experiment [1], `CC(Cc1c[nH]c2ccccc12)(NC(=O)OC1[C@H]2C[C@@H]3C[C@@H](C[C@H]1C3)C2)C(=O)Nc1ccccc1` (stereo partly drawn) gave a Ki of 6080 nM.

Take `CC(Cc1c[nH]c2ccccc12)(C(=O)OC1[C@H]2C[C@@H]3C[C@@H](C[C@H]1C3)C2)C(=O)N(CCc1ccc(Cl)cc1Cl)CC(=O)O` (stereo partly drawn): the Ki is 1220 nM in experiment [2], 28 nM in experiment [3], 3050 nM in experiment [1] and 14 nM in experiment [4].

As to `CC(Cc1ccccc1)(NC(=O)OC1[C@H]2C[C@@H]3C[C@@H](C[C@H]1C3)C2)C(=O)N(CCc1ccccc1)CC(=O)O` (stereo partly drawn), the Ki in experiment [1] worked out at 3800 nM.

As for `CC(Cc1c[nH]c2ccccc12)(NC(=O)Nc1ccc(Cl)cc1)C(=O)NCCc1ccccc1` (stereo not drawn), the affinity in experiment [1], expressed as Ki, was 6330 nM.

Turning to `CC(Cc1c[nH]c2ccccc12)(NC(=O)OC1[C@H]2C[C@@H]3C[C@@H](C[C@H]1C3)C2)C(=O)NCCc1ccc(Cl)cc1Cl` (stereo partly drawn), the Ki in experiment [1] turned out to be 3160 nM.

Molecule `CC(Cc1c[nH]c2ccccc12)(NC(=O)OC1[C@H]2C[C@@H]3C[C@@H](C[C@H]1C3)C2)C(=O)N(CCc1ccc(Cl)cc1Cl)CC(=O)O` (stereo partly drawn) registered a Ki in experiment [1] of 1040 nM.

As for `CC(Cc1ccc(Br)cc1)(NC(=O)OC1[C@H]2C[C@@H]3C[C@@H](C[C@H]1C3)C2)C(=O)N(CCc1ccccc1)CC(=O)O` (stereo partly drawn), in experiment [1], the Ki came to 3410 nM.

The molecule `CC(Cc1c[nH]c2ccccc12)(NC(=O)OC1[C@H]2C[C@@H]3C[C@@H](C[C@H]1C3)C2)C(=O)NCCc1ccc([N+](=O)[O-])cc1` (stereo partly drawn) displayed a Ki in experiment [1] of 2350 nM.

For `COc1ccc(CCNC(=O)C(C)(Cc2c[nH]c3ccccc23)NC(=O)OC2[C@H]3C[C@@H]4C[C@@H](C[C@H]2C4)C3)cc1` (stereo partly drawn), the inhibitory constant (Ki) in experiment [1] stood at 3120 nM.

In experiment [1], `CC(Cc1c[nH]c2ccccc12)(NC(=O)OC1[C@H]2C[C@@H]3C[C@@H](C[C@H]1C3)C2)C(=O)N(CCC(=O)O)CCc1ccccc1` (stereo partly drawn) showed a Ki of 1320 nM.

`CC(Cc1c[nH]c2ccccc12)(NC(=O)OC1[C@H]2C[C@@H]3C[C@@H](C[C@H]1C3)C2)C(=O)NCCc1ccc(Br)cc1` (stereo partly drawn) displayed an inhibition constant (Ki) in experiment [1] of 2140 nM.

For the molecule `CC(Cc1c[nH]c2ccccc12)(NC(=O)OC1[C@H]2C[C@@H]3C[C@@H](C[C@H]1C3)C2)C(=O)NCCc1ccc(Cl)cc1` (stereo partly drawn), the affinity in experiment [1] corresponds to a Ki of 1610 nM.

For the molecule `CC(Cc1c[nH]c2ccccc12)(NC(=O)OC1[C@H]2C[C@@H]3C[C@@H](C[C@H]1C3)C2)C(=O)NCCc1cccc2ccccc12` (stereo partly drawn), the Ki in experiment [1] worked out at 2370 nM. The Ki values of the last two molecules are within 1.5-fold of each other.

Molecule `O=C(O)CN(CCc1ccccc1)C(=O)C(Cc1c[nH]c2ccccc12)NC(=O)OC1[C@H]2C[C@@H]3C[C@@H](C[C@H]1C3)C2` (stereo partly drawn) had a Ki in experiment [1] of 2840 nM.

Take `CC(Cc1c[nH]c2ccccc12)(NC(=O)OC1[C@H]2C[C@@H]3C[C@@H](C[C@H]1C3)C2)C(=O)Nc1ccc2ccccc2c1` (stereo partly drawn): in experiment [1], the inhibition constant Ki was found to be 2360 nM.

For `CC(Cc1c[nH]c2ccccc12)(NC(=O)OC1[C@H]2C[C@@H]3C[C@@H](C[C@H]1C3)C2)C(=O)NCCCc1ccccc1` (stereo partly drawn), the Ki in experiment [1] was 4250 nM.

The molecule `CC(Cc1c[nH]c2ccccc12)(NC(=O)OC1[C@H]2C[C@@H]3C[C@@H](C[C@H]1C3)C2)C(=O)NCC(=O)O` (stereo partly drawn) registered a Ki in experiment [1] of more than 4000 nM.

`CC(Cc1cccc2ccccc12)(NC(=O)OC1[C@H]2C[C@@H]3C[C@@H](C[C@H]1C3)C2)C(=O)N(CCc1ccccc1)CC(=O)O` (stereo partly drawn): the Ki in experiment [1] stood at 2010 nM.

As to `CC(Cc1c[nH]c2ccccc12)(NC(=O)Nc1ccc2ccccc2c1)C(=O)NCCc1ccccc1` (stereo not drawn), affinity in experiment [1] was put at a Ki of 769 nM.

As to `CC(Cc1c[nH]c2ccccc12)(NC(=O)OC1[C@H]2C[C@@H]3C[C@@H](C[C@H]1C3)C2)C(=O)NCc1ccccc1` (stereo partly drawn), the Ki in experiment [1] turned out to be 4100 nM.

In experiment [1], `CC(Cc1ccc2ccccc2c1)(NC(=O)OC1[C@H]2C[C@@H]3C[C@@H](C[C@H]1C3)C2)C(=O)N(CCc1ccccc1)CC(=O)O` (stereo partly drawn) came in with an inhibition constant Ki of 70 nM.

Regarding `CC(Cc1c[nH]c2ccccc12)(NC(=O)OC1[C@H]2C[C@@H]3C[C@@H](C[C@H]1C3)C2)C(=O)N(CCc1ccc(Cl)cc1)CC(=O)O` (stereo in doubt; 26), the Ki amounted to 1360 nM in experiment [2] and 1130 nM in experiment [1].

Take `CC(Cc1c[nH]c2ccccc12)(NC(=O)OC1[C@H]2C[C@@H]3C[C@@H](C[C@H]1C3)C2)C(=O)N(CCc1ccc(Cl)cc1)CC(=O)O` (stereo in doubt; 26A): the results for the Ki in experiment [2] and in experiment [1] were 1230 nM and 1060 nM, respectively.

The values are drawn from ChEMBL document CHEMBL1126830, “Cholecystokinin peptidomimetics as selective CCK-B antagonists: design, synthesis, and in vitro and in vivo biochemical properties” (J Med Chem, 1993).
